Some results are limits rather than exact numbers.

The target in this assay is H1047R PIK3CA enzyme (Homo sapiens, UniProt P42336, H1047R). In words: ADP-Glo Biochemical PIK3CA Kinase Assay.
H1047R PIK3CA enzyme, sequence (P42336 whole entry H1047R): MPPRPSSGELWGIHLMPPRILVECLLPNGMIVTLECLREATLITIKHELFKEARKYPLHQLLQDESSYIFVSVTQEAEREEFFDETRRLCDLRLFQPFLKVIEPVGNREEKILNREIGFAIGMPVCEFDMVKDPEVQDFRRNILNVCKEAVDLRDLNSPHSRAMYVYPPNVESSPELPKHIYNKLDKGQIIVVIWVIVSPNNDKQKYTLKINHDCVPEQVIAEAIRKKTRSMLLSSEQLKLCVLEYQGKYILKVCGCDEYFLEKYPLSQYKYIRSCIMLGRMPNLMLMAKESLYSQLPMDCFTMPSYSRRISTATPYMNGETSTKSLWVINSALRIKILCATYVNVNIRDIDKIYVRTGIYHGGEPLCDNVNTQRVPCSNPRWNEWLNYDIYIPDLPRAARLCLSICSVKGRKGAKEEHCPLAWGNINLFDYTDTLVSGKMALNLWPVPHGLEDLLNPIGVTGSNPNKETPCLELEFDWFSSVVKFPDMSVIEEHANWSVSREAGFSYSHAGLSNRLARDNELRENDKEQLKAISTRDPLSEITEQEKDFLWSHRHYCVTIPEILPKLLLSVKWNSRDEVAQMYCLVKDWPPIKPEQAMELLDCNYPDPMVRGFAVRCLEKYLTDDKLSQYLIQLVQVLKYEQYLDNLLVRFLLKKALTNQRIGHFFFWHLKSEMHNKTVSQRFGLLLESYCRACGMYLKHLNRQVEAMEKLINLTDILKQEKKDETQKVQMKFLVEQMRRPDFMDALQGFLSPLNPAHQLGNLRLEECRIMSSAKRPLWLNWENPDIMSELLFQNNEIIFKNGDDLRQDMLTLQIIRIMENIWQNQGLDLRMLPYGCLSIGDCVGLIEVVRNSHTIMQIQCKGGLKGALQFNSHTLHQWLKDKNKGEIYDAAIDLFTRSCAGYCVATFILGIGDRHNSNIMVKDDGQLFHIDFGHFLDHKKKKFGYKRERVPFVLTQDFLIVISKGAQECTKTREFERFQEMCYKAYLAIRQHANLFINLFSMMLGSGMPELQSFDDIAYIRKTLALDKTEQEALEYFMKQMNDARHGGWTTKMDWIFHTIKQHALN
H1047R PIK3CA enzyme, sequence (P27986 whole entry partner): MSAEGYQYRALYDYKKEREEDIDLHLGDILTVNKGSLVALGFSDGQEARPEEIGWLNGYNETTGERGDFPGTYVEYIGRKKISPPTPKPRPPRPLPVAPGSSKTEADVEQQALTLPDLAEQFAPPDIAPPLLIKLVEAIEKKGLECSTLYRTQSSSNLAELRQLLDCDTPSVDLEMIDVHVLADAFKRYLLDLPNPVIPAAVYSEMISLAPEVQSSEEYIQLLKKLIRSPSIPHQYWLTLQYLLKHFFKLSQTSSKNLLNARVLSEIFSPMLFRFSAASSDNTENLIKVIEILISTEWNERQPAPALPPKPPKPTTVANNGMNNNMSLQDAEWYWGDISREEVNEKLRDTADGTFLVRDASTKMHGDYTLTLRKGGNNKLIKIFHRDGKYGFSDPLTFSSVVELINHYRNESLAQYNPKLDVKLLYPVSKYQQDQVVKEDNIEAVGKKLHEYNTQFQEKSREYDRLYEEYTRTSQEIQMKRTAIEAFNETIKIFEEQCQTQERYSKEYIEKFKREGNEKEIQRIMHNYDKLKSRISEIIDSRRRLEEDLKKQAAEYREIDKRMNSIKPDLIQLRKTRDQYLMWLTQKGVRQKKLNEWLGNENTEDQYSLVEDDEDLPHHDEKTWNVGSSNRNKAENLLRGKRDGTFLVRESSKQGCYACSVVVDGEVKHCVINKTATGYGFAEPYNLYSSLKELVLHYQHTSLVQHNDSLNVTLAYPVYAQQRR
Consider `COc1ccc(-c2cc(NC(=O)c3cc(F)cc(C(F)(F)F)c3)c3c(c2)C(=O)NC3c2cc(F)ccc2Cl)nn1` (stereo not shown) [Compound I-1438], for which the IC50 (commonly the concentration needed to halve the response being measured) is at most 100 nM. The figure for `O=C1N[C@@H](c2cc(F)ccc2Cl)c2c(NC(=O)N3C[C@@H](O)c4cccc(F)c43)cccc21` (single isomer, unassigned) [Compound I-2210] is 10000 to 100000 nM. The compound `N#Cc1cc2ncnn2cc1-c1cc(NC(=O)c2cc(F)cc(C(F)(F)F)c2)c2c(c1)C(=O)N[C@@H]2c1cc(F)ccc1Cl` (single isomer, unassigned) [Compound I-1646] came in with an IC50 of at most 100 nM. In the case of `O=C(Nc1cc(-c2ccc3ncnn3c2)cc2c1C(c1cc(F)ccc1Cl)N(CO)C2=O)c1cc(F)cc(C(F)(F)F)c1` (stereo not shown) [Compound I-1342] it was 100 to 500 nM; in that of `O=C(Nc1cc(Br)cc2c1C(c1cc(F)ccc1Cl)NC2=O)c1ccccc1F` (stereo not shown) [Compound I-466], 10000 to 100000 nM; in that of `O=C(Nc1cc(-c2cn(C(F)F)cn2)cc2c1[C@@H](c1cc(F)ccc1Cl)NC2=O)c1cc(F)cc(C(F)(F)F)c1` [Compound I-1918], 1000 to 10000 nM.

`O=C1NC(c2cc(F)ccc2Cl)c2c(NC(=O)C3CCCC(F)C3)cc(-c3ccc4ncnn4c3)cc21` (stereo not shown) [Compound I-1957] returned an IC50 of 1000 to 10000 nM. In the case of `CC(C)(C)N[C@H]1NC(=O)c2cccc(NC(=O)c3cc(F)cc(C(F)(F)F)c3)c21` (single isomer, unassigned) [Compound I-2248] it was 10000 to 100000 nM; in that of `CN1CC[C@@H](Nc2cc(NC(=O)c3cc(F)cc(C(F)(F)F)c3)c3c(c2)C(=O)NC3c2cc(F)ccc2Cl)C1` (stereo partly shown) [Compound I-312], at most 100 nM; in that of `CC1(n2[nH]c(=O)c3cccc(NC(=O)c4cc(F)cc(C(F)(F)F)c4)c32)CCCCC1` [Compound I-857], 1000 to 10000 nM. The figure for `O=C1NC(c2cc(F)ccc2Cl)c2c(NC(=O)N3CCC(C(F)(F)F)C3)cc(Br)cc21` (stereo not shown) [Compound I-543] is 1000 to 10000 nM; for `O=C(Nc1cc(-c2ccc3cc[nH]c3c2)cc2c1C(c1cc(F)ccc1Cl)NC2=O)c1cc(F)cc(C(F)(F)F)c1` (stereo not shown) [Compound I-855] it is 100 to 500 nM; for `N#Cc1cc(NC(=O)N2C[C@H](O)c3cc(F)ccc32)c2c(c1)C(=O)N[C@H]2c1cc(F)ccc1Cl` (single isomer, unassigned) [Compound I-2491] it is 100 to 500 nM. The figure for `O=C(Nc1cc(-c2ccc3nnnn3c2)cc2c1C(c1cc(F)ccc1Cl)NC2=O)c1cc(F)cc(C(F)(F)F)c1` (stereo not shown) [Compound I-1374] is at most 100 nM. For the compound `CCOc1ncc(C(=O)Nc2cccc3c2C(c2ccccc2C)NC3=O)cc1F` (stereo not shown) [Compound I-107], the concentration for half-maximal inhibition (IC50) lay in the range of 10000 to 100000 nM. In turn, `O=C(Nc1cccc2c1C(C1CCCCC1)NC2=O)c1cc(F)cc(C(F)(F)F)c1` (stereo not shown) [Compound I-1611] had an IC50 of 1000 to 10000 nM.

With `Nc1cc(NC(=O)c2cc(F)cc(C(F)(F)F)c2)c2c(c1)C(=O)NC2c1ccccc1Cl` (stereo not shown) [Compound I-393], the IC50 was at most 100 nM.

Consider `N#CC1CN(c2cc(NC(=O)c3cc(F)cc(C(F)(F)F)c3)c3c(c2)C(=O)NC3c2cc(F)ccc2Cl)C1` (stereo not shown) [Compound I-723], for which the IC50 is at most 100 nM. Compound `O=C(Nc1cc(Br)cc2c1C(c1cc(F)ccc1Cl)NC2=O)c1cc(F)cc(COC(F)F)c1` (stereo not shown) [Compound I-1285] came in with an IC50 of 10000 to 100000 nM. In the case of `O=C(Nc1cc(Br)cc2c1C(c1cc(F)ccc1Cl)NC2=O)c1cc(F)cc(Cl)c1Cl` (stereo not shown) [Compound I-816] it was 100 to 500 nM; in that of `CC(C)[C@@]1(O)CN(C(=O)Nc2cccc3c2[C@H](c2cc(F)ccc2Cl)NC3=O)c2ccc(F)cc21` (single isomer, unassigned) [Compound I-2452], 1000 to 10000 nM. In the case of `O=C(Nc1cc(-c2cnn(-c3ccncn3)c2)cc2c1C(c1cc(F)ccc1Cl)NC2=O)c1cc(F)cc(C(F)(F)F)c1` (stereo not shown) [Compound I-1465] it was at most 100 nM. The figure for `Cc1ccccc1C1NC(=O)c2c(N(C)C)ncc(NC(=O)c3nsc4ccccc34)c21` (stereo not shown) [Compound I-143] is 100 to 500 nM. On to `Cc1ncc(-c2cc(NC(=O)c3cc(F)cc(C(F)(F)F)c3)c3c(n2)C(=O)N[C@@H]3c2cc(F)ccc2Cl)cn1` [Compound I-652], for which the IC50 was in the range of 500 to 1000 nM. In the case of `O=C1NC(c2cc(F)ccc2Cl)c2c(NC3CCc4ccccc43)cc(Br)cc21` (stereo not shown) [Compound I-1852] it was 10000 to 100000 nM.

The compound `O=C1NC(c2cc(F)ccc2Cl)c2c(NC(=O)N3CCCC34CC4)cccc21` (stereo not shown) [Compound I-2467] registered an IC50 of 1000 to 10000 nM.

`O=C(Nc1cc(-c2cn3c(F)cnc3cn2)cc2c1[C@H](c1cc(F)ccc1Cl)NC2=O)c1cc(F)cc(C(F)(F)F)c1` [Compound I-1878] returned a concentration for half-maximal inhibition (IC50) of at most 100 nM. The figure for `O=C1NC(c2cc(F)ccc2Cl)c2c(NC(=O)c3cccc4c(Cl)c[nH]c34)cc(Br)cc21` (stereo not shown) [Compound I-1271] is 500 to 1000 nM; for `CC(=O)N1CC(Oc2cc(NC(=O)c3cc(F)cc(C(F)(F)F)c3)c3c(c2)C(=O)NC3c2cc(F)ccc2Cl)C1` (stereo not shown) [Compound I-1251] it is 100 to 500 nM; for `O=C1NC(c2cc(F)ccc2Cl)c2c(NC(=O)N3CC(C(F)(F)F)Nc4ccccc43)cccc21` (stereo not shown) [Compound I-2339] it is 10000 to 100000 nM. The figure for `O=C1NC(c2cc(F)ccc2Cl)c2c1cccc2-n1cc2ccccc2cc1=O` (stereo not shown) [Compound I-1580] is 10000 to 100000 nM; for `O=C1N[C@H](c2cc(F)ccc2Cl)c2c(NC(=O)N3C[C@@](O)(C(F)(F)F)c4cc(F)ccc43)ccc(-n3cccn3)c21` (single isomer, unassigned) [Compound I-2496] it is 1000 to 10000 nM; for `CC(C)(C)CCC1NC(=O)c2cccc(NC(=O)c3cc(F)cc(C(F)(F)F)c3)c21` (stereo not shown) [Compound I-2196] it is 1000 to 10000 nM. The figure for `N#Cc1cnn2ccc(-c3cc(NC(=O)c4cc(F)cc(C(F)(F)F)c4)c4c(c3)C(=O)NC4c3cc(F)ccc3Cl)cc12` (stereo not shown) [Compound I-1762] is at most 100 nM; for `CN1CCN(C(=O)Nc2cc(Br)cc3c2[C@@H](c2cc(F)ccc2Cl)NC3=O)CC1(C)C` (single isomer, unassigned) [Compound I-2241] it is 10000 to 100000 nM. In turn, `CC(C)(O)c1cc(NC(=O)c2nsc3ccccc23)c2c(c1)C(=O)N[C@@H]2c1cc(F)ccc1Cl` [Compound I-191] came in with an IC50 of 500 to 1000 nM.

`O=C1N[C@@H](c2cc(F)ccc2Cl)c2c(NC(=O)N3CCC[C@@](O)(C(F)(F)F)C3)cccc21` (single isomer, unassigned) [Compound I-2116] had an IC50 of 10000 to 100000 nM. The figure for `N#C[C@H]1C[C@@H](c2cc(NC(=O)c3cc(F)cc(C(F)(F)F)c3)c3c(c2)C(=O)N[C@@H]3c2cc(F)ccc2Cl)C1` (single isomer, unassigned) [Compound I-1327] is at most 100 nM; for `NC1(C(F)(F)F)CC(C(=O)Nc2cc(Br)cc3c2C(c2cc(F)ccc2Cl)NC3=O)C1` (stereo not shown) [Compound I-1632] it is 10000 to 100000 nM.

Compound `Cc1ncc(-c2cc(NC(=O)c3cc(F)cc(C(F)(F)F)c3)c3c(c2)C(=O)NC3c2cc(F)ccc2Cl)c(N)n1` (stereo not shown) [Compound I-1122] showed an IC50 of at most 100 nM. The figure for `Cc1ccccc1[C@H]1NC(=O)c2nccc(NC(=O)N3C[C@@H](C)c4ccccc43)c21` (single isomer, unassigned) [Compound I-301] is 500 to 1000 nM; for `O=C(Nc1cc(Br)cc2c1C(c1cc(F)ccc1Cl)NC2=O)NC1(CC(F)(F)F)CCOCC1` (stereo not shown) [Compound I-1953] it is 10000 to 100000 nM; for `O=C(Nc1cc(-c2ccc3ncnn3c2)cc2c1C(c1cc(F)ccc1Cl)NC2=O)c1ccccc1` (stereo not shown) [Compound I-1550] it is 1000 to 10000 nM. In the case of `O=C(Nc1cc(N2CC3(CCO3)C2)cc2c1C(c1cc(F)ccc1Cl)NC2=O)c1cc(F)cc(C(F)(F)F)c1` (stereo not shown) [Compound I-1310] it was 100 to 500 nM. Compound `C[C@@H](c1nn[nH]c1C(=O)Nc1cccc2c1[C@H](c1cc(F)ccc1Cl)NC2=O)C(F)(F)F` (single isomer, unassigned) [Compound I-2271] came in with an IC50 of 1000 to 10000 nM. Compound `O=C1N[C@H](c2cc(F)ccc2Cl)c2c(NC(=O)N3CC4(CC4)c4cc(F)ccc43)cc(Br)cc21` (stereo in doubt) [Compound I-1510] showed an IC50 of 1000 to 10000 nM. In the case of `CC(C)(O)c1cnc2ccc(-c3cc(NC(=O)c4cc(F)cc(C(F)(F)F)c4)c4c(c3)C(=O)N[C@H]4c3cc(F)ccc3Cl)cc2c1` [Compound I-1604] it was at most 100 nM; in that of `O=C1NC(c2cc(F)ccc2Cl)c2c(Br)cc(-c3ccc4ncnn4c3)cc21` (stereo not shown) [Compound I-1672], 10000 to 100000 nM; in that of `O=C1CCC[C@H]([C@H]2NC(=O)c3cccc(NC(=O)c4cc(F)cc(C(F)(F)F)c4)c32)C1` (single isomer, unassigned) [Compound I-2252], 10000 to 100000 nM. In the case of `CNc1cc(NC(=O)N2C[C@](O)(C(F)F)c3cc(F)ccc32)c2c(c1)C(=O)N[C@@H]2c1cc(F)ccc1Cl` [Compound I-2677] it was at most 100 nM.

Regarding `Cc1ccccc1C1NC(=O)c2cccc(NC(=O)c3c[nH]c(=O)c(F)c3)c21` (stereo not shown) [Compound I-86], the IC50 was in the range of 10000 to 100000 nM. The figure for `O=C1N[C@H](c2cc(F)ccc2Cl)c2c(NC(=O)[C@@H]3CCC[C@H](OC(F)(F)F)C3)cccc21` (single isomer, unassigned) [Compound I-2213] is 10000 to 100000 nM. Regarding `Cc1ccccc1C1NC(=O)c2cc(CN)cc(NC(=O)c3csc4ccccc34)c21` (stereo not shown) [Compound I-88, N-(6-(Aminomethyl)-1-oxo-3-(o-tolyl)isoindolin-4-yl)benzo[b]thiophene-3-carboxamide], the IC50 is at most 100 nM. In the case of `Cn1ccc2c(F)cc(C(=O)Nc3cc(Br)cc4c3C(c3cc(F)ccc3Cl)NC4=O)cc21` (stereo not shown) [Compound I-1005] it was 1000 to 10000 nM; in that of `N#Cc1cnc2cnc(-c3cc(NC(=O)c4cc(F)cc(C(F)(F)F)c4)c4c(c3)C(=O)NC4c3cc(F)ccc3Cl)cn12` (stereo not shown) [Compound I-1767], at most 100 nM; in that of `O=C(Nc1cccc2c1C(N1CCCCC1)NC2=O)c1cc(F)cc(C(F)(F)F)c1` (stereo not shown) [Compound I-537], 10000 to 100000 nM. As for `O=C(CO)Nc1cc(NC(=O)c2cc(F)cc(C(F)(F)F)c2)c2c(c1)C(=O)NC2c1cc(F)ccc1Cl` (stereo not shown) [Compound I-345], the IC50 is at most 100 nM.

The compound `N#Cc1ncccc1-c1cc(NC(=O)c2cc(F)cc(C(F)(F)F)c2)c2c(c1)C(=O)NC2c1cc(F)ccc1Cl` (stereo not shown) [Compound I-1214] had an IC50 of at most 100 nM.
